For 2 molecules, DARPP32 positive neurons results are on record in US11129801B2 (SigmaThera SAS, priority 2016, dated 2021).

This test relates to rat medium spiny neurons (DARPP32 positive neurons). The test can be described thus: Survival of primary medium spiny neurons injured by glutamate. The test is classed as cell-based. To be noted: glutamate 40 μM, 20 min. How it is done: Rat MSN of striatum were cultured as described (Ivkovic S, et al, (1999) The Journal of neuroscience: the official journal of the Society for Neuroscience 19(13): 5409-5419).
Briefly pregnant female rats of 15 days gestation were killed by cervical dislocation (Rats Wistar; Janvier) and the foetuses removed from the uterus. The embryonic midbrains were removed and placed in ice-cold medium of Leibovitz 15 (L15; PanBiotech, Ref P04-27055, Batch: 8810315) containing 2% of Penicillin-Streptomycin (PS; PanBiotech, ref: P06-07100, Batch: 7511015) and 1% of bovine serum albumin (BSA; PanBiotech, Ref: P06-1391100, Batch: H140904). Only the ventral portions of the mesencephalic flexure were used for the cell preparations as this region of the developing brain is rich in dopaminergic neurons. The midbrains were dissociated by trypsinisation for 20 minutes (min) at 37° C. (Trypsin EDTA 1×; PanBiotech, Ref: P10-023100, batch: 1670415). The reaction was stopped by the addition of Dulbecco's modified Eagle's medium (DMEM; PanBiotech, Ref: P04-03600, Batch: 9021115) containing DNase I grade II (0.1 mg/ml; PanBiotech, Ref: P60-37780100, Batch: H140508) and 10% of fetal calf serum (FCS; Invitrogen, Ref: 10270-098, Batch: 41G8542K). Cells were then mechanically dissociated by 3 passages through a 10 ml pipet. Cells were then centrifuged at 180×g for 10 min at 4° C. on a layer of BSA (3.5%) in L15 medium. The supernatant was discarded and the cell pellets were re-suspended in a defined culture medium consisting of Neurobasal (Invitrogen, Ref: 21103, Batch: 1754639) supplemented with B27 (2%; Invitrogen, ref: 17504, batch: 1799273), L-glutamine (2 mM; PanBiotech, Ref: P04-80100, Batch: 6620314) and 2% of PS. Viable cells were counted in a Neubauer cytometer using the trypan blue exclusion test. The cells were seeded at a density of 70000 cells/well in 96 well-plates (pre-coated with poly-D-lysine; Greiner, Ref: E150033VJ) and were cultured at 37° C. in a humidified air (95%)/CO2 (5%) atmosphere. Half of the medium was changed every 2 days with fresh medium. […]

For the molecule `CCC(C/C=C/c1ccccc1)(c1ccccc1)N(C)CC1CC1` (single isomer, unassigned; (+)) [igmesine, (+)-(E)-N-(cyclopropylmethyl)-N-methyl-3,6-diphenylhex-5-en-3-amine], the DARPP32 positive neurons by setting is: (0.3 μM) 89.28 % of the control; (1 μM) 81.60 % of the control.

B1: BDNF: Brain-derived neurotrophic factor, used as a reference compound (protein, UniProt P23560 19-247, looked up)
Neurotrophic factor BDNF …: APMKEANIRGQGGLAYPGVRTHGTLESVNGPKAGSRGLTSLADTFEHVIEELLDEDQKVRPNEENNKDADLYTSRVMLSSQVPLEPPLLFLLEEYKNYLDAANMSMRVRRHSDPARRGELSVCDSISEWVTAADKKTAVDMSGGTVTVLEKVPVSKGQLKQYFYETKCNPMGYTKEGCRGIDKRHWNSQCRTTQSYVRALTMDSKKRIGWRFIRIDTSCVCTLTIKRGR
Turning to B1, the DARPP32 positive neurons (10 ng/mL) is recorded as 90.14 % of the control.
